Experiment: Solubility evaluation in combinations of solvent systems
Format: physicochemical
Method: In addition, the solubility of nalmefene in varying concentrations was evaluated using different combinations of solvent systems. The solvent systems included combinations of polar solvents with different surface active agents. Exemplary surface active agents included: Tween 20, Tween 80, […]® 34/44, KOLLIPHOR® HS 15, SOLUTOL® NF, LABRAFIL® M2125 CS and LABRAFIL® M1944 CS.

Measured: Observation (solubility)

C=C1CC[C@@]2(O)[C@H]3Cc4ccc(O)c5c4[C@@]2(CCN3CC2CC2)[C@H]1O5 [nalmefene]
Completely Soluble,: ID 1, Ethanol:Water 75:25, nalmefene 200 mg/mL | ID 2 (second), Ethanol:Water:Propylene Glycol 82.5:12.5:5, nalmefene 200 mg/mL | ID 2, Ethanol:Water:Tween 20 75:24.5:0.5, nalmefene 250 mg/mL | ID 3, Ethanol:Water:Propylene Glycol 68:22:10, nalmefene 350 mg/mL | ID 5, Ethanol:Water:Propylene Glycol:Tween 80 70:25:4:1, nalmefene 350 mg/mL | ID 6, Ethanol:Water:Glycerine 70:20:10, nalmefene 300 mg/mL | ID 7, Ethanol:Water:Gelucire 34/14 75:20:5, nalmefene 200 mg/mL | ID 8, Ethanol:Water:Labrafil M2125 CS 80:17.5:2.5, nalmefene 200 mg/mL | ID 9, Ethanol:Water:Labrafil M1944 CS 80:17.5:2.5, nalmefene 200 mg/mL
